Results on 16 compounds are retold here after EP0944629B1, “BIARYL-PYRIDOQUINAZOLINONE DERIVATIVES AS ANTI-CANCER AGENTS” (American Cyanamid Company, priority 1996, dated 1998).

The test system of series [1] is LS174T. The conditions noted are these: days 1,5,9.
Method: Human tumor fragments are implanted s.c. in athymic nude mice. Tumors are allowed to grow until they attain a mass of 100-150 mgs. […] Drugs are administered i.p. at Days 1, 5, and 9. Each mouse tumor mass is determined every 7 days, until Day 28, using caliper measurements of tumor length and width. Mean tumor mass for each group of animals is then calculated and the relative tumor growth determined. The relative tumor growth is defined as a ratio of the tumor mass on a given day to a tumor mass on Day 0. Calculation of % T/C (the relative tumor growth of treated group divided by the relative tumor growth of placebo group, multiplied by 100) is made for each day of measurement. A positive drug response is indicated by a % T/C value below 60%, and a p value in the Student t-test of less than 0.05. More than 20% deaths in the group related to the drug administration indicates toxicity.
For series [2], the system named is P388. Description: Murine P388 Leukemia. It is filed as in vivo, CD2F1 mice. On the procedure: CD2F1 mice are injected i.p. with 1 x 10^6 tumor cells on Day 0 of the test. Drugs are administered i.p. on Days 1, 5, and 9 after the tumor implantation. Positive drug response is indicated by a more than 25% increase in the mean life span (% ILS), relative to placebo treated controls. Drugs are considered to be toxic when the mean life span of the drug treated animals is more than 15% shorter than placebo treated controls.

Series [3] relates to A2780 S. Description: two cell line test procedure (sulforhodamine B cytotoxicity), A2780 S. Format: cell-based. The conditions noted are these: A2780 S cells, 48 hours exposure. Here is the method: (§1) A2780 S and A2780 DDP cells [Biochemical and Molecular Properties of Cisplatin-resistant A2780 Cells Grown in Folinic Acid; Y. Lu, J. Hnan, and K. Scanlon, J. Biol. Chem., 263, 4891-4894, 1988.] are grown in RPMI 1640 medium containing 5% fetal calf serum, 50 µg/ml streptomycin, 50 units/ml penicillin, 50 µg/ml gentamycin, 0.03% L-glutamine, 1 nM estradiol, 1 nM testosterone, 5 µg/mlinsulin, 5 µg/ml transferrin, and 5 ng/ml selenous acid, at 37°C, in a humidified atmosphere, containing 5% CO2. Experiments are done in the same media.
(§2) Cells are plated at the concentration of 5 x 10^4/ml on Day 0 of the experiment. On Day one control cells are fixed with trichloroacetic acid and 5 ten fold dilutions of tested compounds are added, in duplicates, to the remaining cells. On Day 3 (48 hours exposure to drugs) all cells are fixed with trichloroacetic acid, stained with 0.4% sulforhodamine B, and absorbency is read at 520 nm. The IC50s (concentration causing 50% inhibition) are determined for each drug.

Series [4] has as its system A2780 DDP. Description: two cell line test procedure (sulforhodamine B cytotoxicity), A2780 DDP. The conditions noted are these: A2780 DDP (cisplatin-resistant) cells, 48 hours exposure. Format: cell-based. Here is the method:
as §1, §2

For series [5] the following is noted: reported by Denny et al.; cited from earlier work.
Series [6] deals with P388. Particulars: reported by Denny et al.; cited from earlier work.
The conditions of series [7]: reported by Denny et al.; cited from earlier work. This is another data set of the same source.
For series [8], the system named is COLON 26. Description: Murine Colon 26 Advanced, Metastatic Tumor. Format: in vivo, CD2F1 mice. On the procedure:
CD2F1 mice are injected i.p. with 5 x 10^5 tumor cells on Day 0 of the test. […] Positive drug response is indicated by a more than 25% increase in the mean life span (% ILS), relative to placebo treated controls. Drugs are considered to be toxic, when the mean life span of the drug treated animals is more than 15% shorter than placebo treated controls.

Where [9] appears, read: P388, 50 mg/kg i.p., days 1,5,9.
The mark [10] stands for this setting: P388, 100 mg/kg i.p., days 1,5,9.
The mark [11] stands for this setting: COLON 26, 200 mg/kg i.p., days 5,9,13.
Where [12] appears, read: P388, 200 mg/kg i.p., days 1,5,9.

≈ marks a conversion by molar mass, not a printed value. Like-named read-outs stand apart in the source and are kept apart here.

With `CC[C@]1(O)C[C@H]2CN(CCc3c([nH]c4ccccc34)[C@@](C(=O)OC)(c3cc4c(cc3OC)N(C=O)[C@H]3[C@@](O)(C(=O)OC)[C@H](OC(C)=O)[C@]5(CC)C=CCN6CC[C@]43[C@@H]65)C2)C1` [Vincristine, reference compound], in series [1] (1.0 mg/kg i.p.), the “%T/C” value turned out to be 52 %T/C. For the same compound, the “% ILS” value in series [2] (P388, 0.8 mg/kg i.p., days 1,5,9) is “+114%”.
Take `CN(C)CCNC(=O)c1cccn2c(=O)c3ccc(-c4cccc(N)c4)cc3nc12` [Example 35, 11H-Pyrido[2,1-b]quinazoline-6-carboxamide, 3-(3-aminophenyl)-N-[2-(dimethylamino)ethyl]-11-oxo]: the “IC50 (µg/ml) A2780 S” value in series [3] was 0.50 µg/mL (≈ 1.25 µM). Besides, the “IC50 (µg/ml) A2780 DDP” value in series [4] is 0.40 µg/mL (≈ 0.996 µM).
Take `CN(C)CCNC(=O)c1cccn2c(=O)c3ccccc3nc12` [I, N-[2-(dimethylamino)ethyl]-11-oxo-11H-pyrido[2,1-b]quinalzoline-6-carboxamide]: in series [5], the in vitro activity entry is reported as “some in vitro activity”. For the same compound, the “activity in a P388 mouse model” value in series [6] is “inactive”. For the same compound, in series [7], the mutagenic activity entry is given as “mutagenic activity”.
For the compound `CN(C)CCNC(=O)c1cccn2c(=O)c3cc(-c4cccc5ccccc45)ccc3nc12` [Example 17, 11H-pyrido[2,1-b)quinazoline-6-carboxamide, N-[2-(dimethylamino)ethyl]-2-(1-naphthalenyl)-11-oxo], in series [3], the “IC50 (µg/ml) A2780 S” value turned out to be 4.60 µg/mL (≈ 10.5 µM). Moreover, in series [4], the “IC50 (µg/ml) A2780 DDP” value is 4.70 µg/mL (≈ 10.8 µM).
For the compound `Cl.Cl.Cl.Nc1ccccc1-c1ccc2nc3c(C(=O)NCCNCCO)cccn3c(=O)c2c1` [Example 30, 11H-Pyrido[2,1-b]quinazoline-6-carboxamide, 2-(2-aminophenyl)-N-[2-[(2-hydroxyethyl)amino]ethyl]-11-oxo-trihydrochloride], in series [3], the “IC50 (µg/ml) A2780 S” value was 4.80 µg/mL. The “IC50 (µg/ml) A2780 DDP” value in series [4] came out at 6.90 µg/mL.
`CN(C)CCNC(=O)c1cccn2c(=O)c3cc(-c4ccccc4-c4ccccc4)ccc3nc12` [Example 14, 11H-Pyrido[2,1-b]quinazoline-6-carboxamide, 2-[1,1'biphenyl]-2-yl-N-[2-(dimethylamino)ethyl]-11-oxo]: the “IC50 (µg/ml) A2780 S” value in series [3] came out at 4.40 µg/mL (≈ 9.51 µM). Further, in series [4], the “IC50 (µg/ml) A2780 DDP” value came to 4.80 µg/mL (≈ 10.4 µM).
Take `CN(C)CCNC(=O)c1cccn2c(=O)c3cc(-c4cccc(-c5ccccc5)c4)ccc3nc12` [Example 15, 11H-Pyrido[2,1-b]quinazoline-6-carboxamide, 2-[1,1'-biphenyl]-3-yl-N-[2-(dimethylamino)ethyl]-11-oxo]: the “IC50 (µg/ml) A2780 S” value in series [3] came to 0.60 µg/mL (≈ 1.3 µM). Further, in series [4], the “IC50 (µg/ml) A2780 DDP” value was determined as 0.80 µg/mL (≈ 1.73 µM). The “% ILS” value in series [2] (setting [9]) is “+8%”; in series [2] (setting [10]), “+2%”; in series [2] (P388, 200 mg/kg i.p., days 1,5) it was -40%.
Take `CN(C)CCNC(=O)c1cccn2c(=O)c3cc(-c4cc(C(F)(F)F)cc(C(F)(F)F)c4)ccc3nc12` [Example 20, 11H-Pyrido[2,1-b]quinazoline-6-carboxamide, 2-[3,5-bis(trifluoromethyl)phenyl]-N-[2-(dimethylamino)ethyl]-11-oxo]: the “IC50 (µg/ml) A2780 S” value in series [3] is 3.80 µg/mL (≈ 7.27 µM). Moreover, in series [4], the “IC50 (µg/ml) A2780 DDP” value is 3.00 µg/mL (≈ 5.74 µM).
On the same counts, the results for `CN(C)CCNC(=O)c1cccn2c(=O)c3cc(-c4cccc(N(C)C)c4)ccc3nc12` [Example 21, 11H-Pyrido[2,1-b]quinazoline-6-carboxamide, N-[2-(dimethylamino)ethyl]-2-[3-(dimethylamino)phenyl]-11-oxo] are 0.20 µg/mL (≈ 0.466 µM) and 0.50 µg/mL (≈ 1.16 µM).
`Cl.Cl.Cl.Nc1cccc(-c2ccc3nc4c(C(=O)NCCNCCO)cccn4c(=O)c3c2)c1` [Example 24, 11H-Pyrido [2,1-b]quinazoline-6-carboxamide, 2-(3-aminophenyl)-N-[2-[(2-hydroxyethyl)amino]ethyl]-11-oxo-trihydrochloride]: the “% ILS” value in series [8] (setting [11]) is given as “+24%”; in series [8] (COLON 26, 300 mg/kg i.p., days 5,9,13) it was -24%; in series [2] (P388, 25 mg/kg i.p., days 1,5,9), “+12%”; in series [2] (setting [9]) it was “+4%”; in series [2] (setting [10]) it was “+4%”; in series [2] (setting [12]), 0%. In series [3], the “IC50 (µg/ml) A2780 S” value is 0.60 µg/mL. Besides, the “IC50 (µg/ml) A2780 DDP” value in series [4] came out at 2.10 µg/mL.
Take `CN(C)CCNC(=O)c1cccn2c(=O)c3cc(-c4cccc(C(F)(F)F)c4)ccc3nc12` [Example 18]: the “IC50 (µg/ml) A2780 S” value in series [3] stood at 1.10 µg/mL (≈ 2.42 µM). For the same compound, in series [4], the “IC50 (µg/ml) A2780 DDP” value was 4.20 µg/mL (≈ 9.24 µM).
On the same counts, the results for `Cl.Cl.O=C(NCCNCCO)c1cccn2c(=O)c3cc(-c4ccccc4)ccc3nc12` [Example 26, 11H-pyrido[2,1-b]quinazoline-6-carboxamide, N-[2-[(2-hydroxyethyl)amino]-ethyl]-11-oxo-2-phenyl, dihydrochloride] are 0.80 µg/mL and 3.50 µg/mL.
In the case of `COc1cccc2c1C(=O)c1c(O)c3c(c(O)c1C2=O)C[C@@](O)(C(=O)CO)C[C@@H]3O[C@H]1C[C@H](N)[C@H](O)[C@H](C)O1` [Adriamycin, reference compound], in series [8] (COLON 26, 4 mg/kg i.p., days 5,9,14), the “% ILS” value is reported as “+71%”.
Regarding `CN(C)CCNC(=O)c1cccn2c(=O)c3cc(-c4cc5ccccc5c5ccccc45)ccc3nc12` [Example 16], the “IC50 (µg/ml) A2780 S” value in series [3] was found to be 4.10 µg/mL (≈ 8.43 µM). The “IC50 (µg/ml) A2780 DDP” value in series [4] was found to be 5.30 µg/mL (≈ 10.9 µM).
Consider `COc1ccc(-c2ccc3nc4c(C(=O)NCCN(C)C)cccn4c(=O)c3c2)cc1` [Example 19, 11H-Pyrido[2,1-b]quinazoline-6-carboxamide, N-[2-(dimethylamino)ethyl]-2-(4-methoxyphenyl)-11-oxo], for which, in series [3], the “IC50 (µg/ml) A2780 S” value was 4.30 µg/mL (≈ 10.3 µM). For the same compound, the “IC50 (µg/ml) A2780 DDP” value in series [4] amounted to 3.40 µg/mL (≈ 8.16 µM). The “% ILS” value in series [2] (setting [9]) was -9%; in series [2] (setting [10]), “+4%”; in series [2] (setting [12]), “+6%”.
As for `CN(C)CCNC(=O)c1cccn2c(=O)c3cc(-c4cccc(N)c4)ccc3nc12` [Example 13, 11H-Pyrido[2,1-b]quinazoline-6-carboxamide, 2-(3-aminophenyl)-N-[2-(dimethyl-amino)ethyl]-11-oxo], the “% ILS” value is “+18%” in series [8] (COLON 26, 100 mg/kg i.p., days 5,9,13); “+24%” in series [8] (setting [11]); “+35%” in series [8] (COLON 26, 250 mg/kg i.p., days 5,9,13); “+2%” in series [2] (setting [9]); “+20%” in series [2] (setting [10]); “+57%” in series [2] (setting [12]). Further, in series [3], the “IC50 (µg/ml) A2780 S” value turned out to be 0.40 µg/mL (≈ 0.996 µM). Besides, the “IC50 (µg/ml) A2780 DDP” value in series [4] came out at 3.70 µg/mL (≈ 9.22 µM). The results for the “%T/C” value in series [1] (250 mg/kg i.p.) and in series [1] (300 mg/kg i.p.) were 59 %T/C and 44 %T/C, respectively.
